{"source": "patent US9895363B2", "about": "“Methods for modulating function of proliferating cell nuclear antigen (PCNA) and treating cancer with PCNA-targeting compounds” (University of Cincinnati, priority 2010, dated 2018)", "key": {"[1]": {"tested_on": "LNCaP prostate cancer cells", "assay": "Growth inhibition by MTT staining, LNCaP", "format": "cell-based, Human", "conditions": "96 h, Table II, Human tumor cells, treated four days, mean of five to seven experiments, read-out: IC50 Values, LNCaP", "description": "(§1) Growth inhibitory effects of PCNA-I1 and PCNA-I2 were assessed in human cancer cell lines, mouse cancer cell lines, immortalized mouse cell lines, and human primary cell lines. Specifically, growth inhibitory effects of PCNA-I1 and PCNA-I2 were assessed using MTT staining in the following cells lines: 1) human cancer cell lines including LNCaP (androgen receptor […]), 22Rv1, DU-145, LAPC-4, and PC-3 (androgen receptor […]) prostate cancer cells; MCF-7 and T47D breast cancer cells; A375 and MDA-MB435 melanoma cells; 2) mouse cancer cell lines including TRAMP-C2RE3 prostate cancer cells, B16 and K1735 melanoma cells, UV2237 fibrosarcoma cells, and CT-26 colon cancer cells; 3) immortalized mouse lung cell lines and mouse endothelial cell lines; and 4) primary human cell lines including umbilical endothelial cells (HUVEC, PromoCell, Heidelberg, Germany), primary bone marrow mesenchymal stem cells (HuMSC, PromoCell), primary human mammary epithelial cells (HuBrEC, Lonza, Walkersville, Md.), primary human prostate epithelial cells (HuPrEC, Lonza), and primary mouse spleen lymphocytes (isolated in this laboratory), and primary mouse bone marrow stromal cells (isolated in this laboratory). PCNA-I1 and PCNA-I2 were either provided by the University of Cincinnati Drug Discovery Center (UC-DDC, Cincinnati, Ohio) or were purchased from Chembridge Co (San Diego, Calif.), ChemDiv (San Diego, Calif.), and/or Sigma-Aldrich (St Louis, Mo.).\nGrowth inhibitory effects of the compounds were assessed by MTT staining as described previously by Dong et al. in In Vitro Model for Intrinsic Drug Resistance: Effects of Protein Kinase C Activators on the Chemosensitivity of Cultured Human Colon Cancer Cells; Mol. Pharmacol. 1991; 39: 563-9. Briefly, cells were cultured and treated in their respective media. Cells were plated into 96-well plates at 1000 to 5000 cells/well. After an overnight incubation, the cells were treated for four days with various concentrations (up to 10 μM) of PCNA-I1 or PCNA-I2. The live cells were stained with MTT and cells in exponential growth phase were harvested by a one to three minute treatment with a 0.25% trypsin-0.02% EDTA solution. Flasks were tapped to detach the cells, RPMI 1640-10% FBS was added, and the cell suspensions were gently agitated to produce single-cell suspensions. The cell suspensions were washed and resuspended in medium with supplements specified for different cells. Only suspensions of single cells with a viability exceeding 95% (ascertained by trypan blue exclusion) were used.\nIC50 values were derived from growth inhibition curves. Data for tumor cells are a mean of five to seven experiments. Data for primary cells are a mean of three experiments. […] Inhibition of cell growth was calculated using the formula: growth inhibition (%)=(1−A570 of treated/A570 of control)×100. IC50 (the concentration that inhibited cell growth by 50%) values were also determined. For evaluation of lymphocyte growth in suspension, an Alamar blue assay was performed, wherein freshly prepared mouse spleen lymphocytes were stimulated for 72 H with 2 ug/mL concanavalin A (Sigma Chemicals, St. Louis, […].). During the last 24 H, 20 μl/well of Alamar blue (Invitrogen, Carlsbad, Calif.) was added. The fluorescence intensity was measured at 530/580 (excitation/emission) in the FLUOstar Omega microplate reader (BMG LABTECH, Cary, N.C.).\nGrowth inhibitory effects of PCNA-I3, PCNA-I4, PCNA-I6, PCNA-I7, PCNA-I8, PCNA-I9 and PCNA-I10 were assessed in human prostate cancer cell lines. Specifically, growth inhibitory effects of PCNA-I3, PCNA-I4, PCNA-I6, PCNA-I7, PCNA-I8, PCNA-I9 and PCNA-I10 were assessed using MTT staining in LNCaP and PC-3 cells. […]"}, "[2]": {"tested_on": "MDA-MB435 melanoma cells", "assay": "Growth inhibition by MTT staining, MDA-MB435", "format": "cell-based", "conditions": "MDA-MB-435, 96 h, Human, treated four days", "description": "as §1, with “PCNA-I1 and PCNA-I2 were either provided by the University of Cincinnati Drug Discovery Center (UC-DDC, Cincinnati, Ohio) or were purchased from Chembridge Co (San Diego, Calif.), ChemDiv (San Diego, Calif.), and/or Sigma-Aldrich (St Louis, Mo.).” left out\n(§2) IC50 values were derived from growth inhibition curves. […] Inhibition of cell growth was calculated using the formula: growth inhibition (%)=(1−A570 of treated/A570 of control)×100. […]"}, "[3]": {"tested_on": "TRAMP-C2RE3 prostate cancer cells", "assay": "Growth inhibition by MTT staining, TRAMP-C2RE3", "format": "cell-based", "conditions": "96 h, Mouse, Prostate tumor cells, treated four days", "description": "as §1, with “PCNA-I1 and PCNA-I2 were either provided by the University of Cincinnati Drug Discovery Center (UC-DDC, Cincinnati, Ohio) or were purchased from Chembridge Co (San Diego, Calif.), ChemDiv (San Diego, Calif.), and/or Sigma-Aldrich (St Louis, Mo.).” left out\nas §2"}, "[4]": {"tested_on": "UV2237 fibrosarcoma cells", "assay": "Growth inhibition by MTT staining, UV2237", "format": "cell-based", "conditions": "96 h, Mouse, treated four days", "description": "as §1, with “PCNA-I1 and PCNA-I2 were either provided by the University of Cincinnati Drug Discovery Center (UC-DDC, Cincinnati, Ohio) or were purchased from Chembridge Co (San Diego, Calif.), ChemDiv (San Diego, Calif.), and/or Sigma-Aldrich (St Louis, Mo.).” left out\nas §2"}, "[5]": {"tested_on": "CT26-R500 murine colon cancer cell line", "assay": "Growth inhibition by MTT staining, CT26-R500", "format": "cell-based", "conditions": "Mouse tumor cells; cell line not given; read-out: IC50 Values, cell line cell blank (third row below UV2237)", "description": "as §1, with “PCNA-I1 and PCNA-I2 were either provided by the University of Cincinnati Drug Discovery Center (UC-DDC, Cincinnati, Ohio) or were purchased from Chembridge Co (San Diego, Calif.), ChemDiv (San Diego, Calif.), and/or Sigma-Aldrich (St Louis, Mo.).” left out\nas §2"}, "[6]": {"tested_on": "Tumor Cells", "assay": "Growth inhibition, mean over tumor cell lines", "format": "cell-based", "conditions": "mean over all tumor cell lines; read-out: IC50 Values, Tumor Cells, Mean ± SD", "description": "as §1, with “PCNA-I1 and PCNA-I2 were either provided by the University of Cincinnati Drug Discovery Center (UC-DDC, Cincinnati, Ohio) or were purchased from Chembridge Co (San Diego, Calif.), ChemDiv (San Diego, Calif.), and/or Sigma-Aldrich (St Louis, Mo.).” left out\nas §2"}, "[7]": {"tested_on": "primary bone marrow mesenchymal stem cells (MSC)", "assay": "Growth inhibition, bone marrow mesenchymal stem cells", "format": "cell-based, Human", "description": "as §1, with “PCNA-I1 and PCNA-I2 were either provided by the University of Cincinnati Drug Discovery Center (UC-DDC, Cincinnati, Ohio) or were purchased from Chembridge Co (San Diego, Calif.), ChemDiv (San Diego, Calif.), and/or Sigma-Aldrich (St Louis, Mo.).” left out\nas §2"}, "[8]": {"tested_on": "Normal Cells", "assay": "Growth inhibition, mean over normal cells", "format": "cell-based", "description": "as §1, with “PCNA-I1 and PCNA-I2 were either provided by the University of Cincinnati Drug Discovery Center (UC-DDC, Cincinnati, Ohio) or were purchased from Chembridge Co (San Diego, Calif.), ChemDiv (San Diego, Calif.), and/or Sigma-Aldrich (St Louis, Mo.).” left out\nas §2"}, "[9]": {"tested_on": "PC-3 cells", "assay": "Cell growth after single 24 H pre-treatment (Alamar blue)", "format": "cell-based, Human", "conditions": "0.5 μM for 24 H, washed, Alamar blue up to 144 H; FIG. 1", "description": "The necessity of a continuous presence of PCNA-I1 for cell growth was also investigated."}, "[10]": {"tested_on": "LNCaP cells", "assay": "LNCaP tumor model in male nude mice", "format": "in vivo", "description": "The therapeutic effects of PCNA-I1 were evaluated in LNCaP cells and 22Rv1 tumor models. LNCaP or 22Rv1 cells (1-2×10^6 cells in gelfoam) were implanted into the subcutis of male nude mice. From four to five days later, tumor-bearing mice were intraperitoneally injected with 10 mg/kg or 50 mg/kg of PCNA-I1. The therapy was continued at three times/week until termination of experiments. Control and treated tumor-bearing mice were monitored daily. Mouse body weight was recorded for toxicity evaluation twice a week and tumor size was measured using calipers twice a week. The experiments were terminated when mice in control groups were moribund. Additionally, to further evaluate potential liver and renal toxicity of PCNA-I1, the blood of tumor-bearing mice were sampled after the treatment with PCNA-I1 for 8 weeks."}}, "note": "Read-outs that look alike come from different tables or passages of the source."}
{"smiles": "Cc1ccsc1C(=O)N/N=C/c1ccc2ccccc2c1O", "note": "[PCNA-I1]", "values": [{"measurement": "IC50", "setting": "[1]", "value": 140, "unit": "nM"}, {"measurement": "IC50", "setting": "[2]", "value": 290, "unit": "nM"}, {"measurement": "IC50", "setting": "[3]", "value": 200, "unit": "nM"}, {"measurement": "IC50", "setting": "[4]", "value": 250, "unit": "nM"}, {"measurement": "IC50", "setting": "[5]", "value": 70, "unit": "nM"}, {"measurement": "IC50", "setting": "[6]", "value": "190 ± 90", "unit": "nM"}, {"measurement": "IC50", "setting": "[7]; Homo sapiens, FIG. 2(C), read-out: IC50, MSC", "value": 989, "unit": "nM"}, {"measurement": "IC50", "setting": "[7]; Human, Bone Marrow, normal cells, read-out: IC50 Values, Mesenchymal Stem Cells", "value": 990, "unit": "nM"}, {"measurement": "IC50", "setting": "[8]; mean over all normal cells, read-out: IC50 Values, Normal Cells, Mean ± SD", "value": "1430 ± 450", "unit": "nM"}, {"measurement": "Concentrations inhibiting growth of normal cells by 50% relative to those for tumor cells", "setting": "[8]; normal vs tumor cells, p<0.001", "value": "approximately 8 times"}, {"measurement": "Duration of growth inhibition after single one-day pre-treatment", "setting": "[9]", "value": "sufficient to inhibit cell growth for up to seven days"}, {"measurement": "Tumor eradication, LNCaP model", "setting": "[10]; 50 mg/kg i.p., three times/week", "value": "eradication of LNCaP tumors in some mice"}, {"measurement": "Tumor growth, LNCaP model", "setting": "[10]; 10 or 50 mg/kg i.p., three times/week", "value": "retarded tumor growth"}, {"measurement": "PCNA expression in tumor (immunohistochemistry)", "setting": "[10]; LNCaP tumor, 10 mg/kg three times/week, FIG. 22", "value": "reduced PCNA expression"}]}
